Where no end group is shown, it is not given here.
Assays:
HIV-1IIIB = assay: HIV-1 antiviral assay in CEM-SS cells (MTS); type: cell-based; conditions: positive controls
HCMV strain AD169 = assay: HCMV plaque formation assay in MRC-5 cells; conditions: for inhibition of HCMV plaque formation as compared to the virus control: 10 micrograms per ml, HCMV AD169, 7-10 days
IL-4 spleen cells = assay: Th1/Th2 cytokine profiling assay: IL-4; type: cell-based; conditions: 10 micrograms per ml; Ovalbumin-restimulated spleen cells of immunized Balb/c mice, 72 hours
From the text: (§1) The Balb/c mice (originated in 1923, it is a popular strain and is used in many different research disciplines. Also classified as an inbred from the production of 20 or more successive brother-sister matings, the Balb/c mouse is albino and small in size) were immunized on Days 1, 15, and 29 with Ovalbumin (Ovalbumin is the main protein found in egg white, commonly used to stimulate an immunological reaction in test animals) in PBS (5 micrograms/injection). On day 50, spleens of the mice were harvested (3 weeks after last boost with Ovalbumin). Cells were cultured (2×10^5/well in triplicate) and incubated with culture medium or test peptides—10 micrograms per ml—for 30 min. Thereafter, additional Ovalbumin was added to the cells at 10 micrograms/ml for in vitro restimulation of the cells. 72 hours later, cell supernatants were harvested and assayed using the Becton Dickinson Mouse Th1/Th2 Cytokine CBA Kit.

[1] = system: Primary Human endothelial cells (HUVEC); assay: Endothelial cell migration assay; type: cell-based; conditions: 10 micrograms per ml, 22 hours, combination peptide 1:peptide 2 0.95 mole:1.05 mole
Method: Thereafter, designated concentration of testing peptides—10 micrograms per ml—was added in duplicate wells.

IL-2 spleen cells = assay: Th1/Th2 cytokine profiling assay: IL-2; type: cell-based; conditions: 10 micrograms per ml; Ovalbumin-restimulated spleen cells of immunized Balb/c mice, 72 hours
From the text: as §1

TNF-a spleen cells = assay: Th1/Th2 cytokine profiling assay: TNF-a; type: cell-based; conditions: 10 micrograms per ml; Ovalbumin-restimulated spleen cells of immunized Balb/c mice, 72 hours
From the text: as §1

[2] = system: hepatitis B virus (HBV) ayw strain; assay: HBV assay in HepG2-2.2.15 cells (TaqMan PCR of secreted HBV DNA); type: cell-based; conditions: 10 micrograms per ml, six days, HBV DNA by TaqMan PCR
From the text: HepG2-2.2.15 is a stable cell line containing the hepatitis B virus (HBV) ayw strain genome (ATCC Cat. No. CRL-11997). Antiviral compounds blocking any late step of viral replication such as transcription, translation, pregenome encapsidation, reverse transcription, particle assembly and release can be identified and characterized using this cell line. In this assay, an active compound will reduce the production of secreted HBV from cells, measured by utilizing real time quantitative PCR (TaqMan) assay to directly and accurately measure HBV DNA copies.
HepG2-2.2.15 cells were plated in 96-well microtiter plates. After 16-24 hours the confluent monolayer of HepG2-2.2.15 cells was washed and the medium was replaced with complete medium containing test peptides—10 micrograms per ml—in duplicate. […] Six days following the initial administration of the peptides, the cell culture supernatants was collected, treated with pronase and DNAse and then used in a real-time quantitative TaqMan PCR assay. The PCR-amplified HBV DNA was detected in real-time by monitoring increases in fluorescence signals that result from the exonucleolytic degradation of a quenched fluorescence probe molecule that hybridizes to the amplified HBV DNA. […] Antiviral activity was calculated from the reduction in HBV DNA levels (% virus control). […]

IL-5 spleen cells = assay: Th1/Th2 cytokine profiling assay: IL-5; type: cell-based; conditions: 10 micrograms per ml; Ovalbumin-restimulated spleen cells of immunized Balb/c mice, 72 hours
From the text: as §1

IFNγ spleen cells = assay: Th1/Th2 cytokine profiling assay: IFNγ; type: cell-based; conditions: 10 micrograms per ml; Ovalbumin-restimulated spleen cells of immunized Balb/c mice, 72 hours
From the text: as §1

HUVEC = assay: Endothelial tube formation assay; type: cell-based, human; conditions: 10 micrograms per ml, 20 hours, combination peptide 1:peptide 2 0.95 mole:1.05 mole
From the text: Positive control was vehicle only.

| Compound | antiviral activity of positive control compounds (HIV-1 assay) (HIV-1IIIB) | antiviral activity of positive control compound (HCMV assay) (HCMV strain AD169; positive control, HCMV AD169) | IL-4 spleen cells; TH2 response (% of control) (IL-4 spleen cells) | inhibition of the migration of human endothelial cells [1] | IL-2 spleen cells (% of control) (IL-2 spleen cells) | TNF-a spleen cells; TH1 response (% of control) (TNF-a spleen cells) | inhibition of HBV replication as compared to the virus control infection [2] [%] | IL-5 spleen cells; TH2 response (% of control) (IL-5 spleen cells) | IFNγ spleen cells; TH1 response (% of control) (IFNγ spleen cells) | inhibition of HCMV plaque formation as compared to the virus control (HCMV strain AD169) | inhibition of the tube formation of endothelial cells (HUVEC) [%] |
| --- | --- | --- | --- | --- | --- | --- | --- | --- | --- | --- | --- |
| CC(C)(C)NC(=O)[C@@H]1CN(Cc2cccnc2)CCN1C[C@@H](O)C[C@@H](Cc1ccccc1)C(=O)N[C@H]1c2ccccc2C[C@H]1O [indinavir] | expected levels of antiviral activity |  |  |  |  |  |  |  |  |  |  |
| Cc1cn([C@H]2C[C@H](N=[N+]=[N-])[C@@H](CO)O2)c(=O)[nH]c1=O [AZT] | expected levels of antiviral activity |  |  |  |  |  |  |  |  |  |  |
| Nc1nc(O)c2ncn(COC(CO)CO)c2n1 [Ganciclovir, reference compound] |  | expected levels of antiviral activity |  |  |  |  |  |  |  |  |  |
| Ser-Phe-Leu-Leu-Arg-OH (SFLLR-OH) [Peptide 1] |  |  | 0.0 % of control | 29% | 55.7 % of control | 121.8 % of control | 39.6 | 55.9 % of control | 129.1 % of control | did not inhibit | 12 |
| Ac-muramyl-Ala-D-Glu-NH2 [Peptide 2] |  |  | 94.5 % of control | did not inhibit | 0.0 % of control | 134.0 % of control | 54.4 | 71.3 % of control | 146.7 % of control | did not inhibit | 27 |

— US20100204155A1, “USE OF THE PEPTIDE SFLLR-OH AND MURAMYL DIPEPTIDE AS THERAPEUTIC AGENTS” (priority 2007, published 2010)
